From patent publication US20080262049A1, “Therapeutic Agent for Hematopoietic Tumor” (KYOWA HAKKO KOGYO CO., LTD., priority 2005, published 2008)

Experiments:
[1] = tested on: human non-Hodgkin's lymphoma SR cells; assay: Cell growth inhibition test on non-Hodgkin's lymphoma cells (XTT), SR; assay type: cell-based; conditions: same manner as Test Example 1, read-out: growth inhibitory activity, GI50 value
Experimental: (§1) RS4;11 cells (20000 cells/well), K-562 cells (1000 cells/well), or NCI-H929 cells (15000 cells/well) were seeded in each well of 96-well plates (Nunc, catalog No. 167008), and cultured overnight. Test compounds diluted stepwise were added, and the cells were further cultured for 72 hours (final volume: 100 μL/well). Fifty μL XTT labeling mixture of Cell Proliferation Kit II (XTT) (Roche Diagnostics, catalog No. 1465015) was added to each well, and the plates were incubated at 37° C. After 4 hours, absorbance at 490 nm (reference wavelength: 655 nm) was measured with a plate reader (Molecular Device, SpectraMax 340PC^384). Growth ratios of the cells in the wells treated with the test compound was calculated based on the growth ratio of the cells in the control well treated with solvent (dimethyl sulfoxide (DMSO)) for 72 hours, which was defined as 100%.
(§2) As cancer cell lines, human acute myeloid leukemia MV-4-11 cells (ATCC No. CRL-9591) and human non-Hodgkin's lymphoma SR cells (ATCC No. CRL-2262) were used. The cells were cultured at 37° C. in a 5% carbon dioxide atmosphere by using the mediums mentioned below, respectively.
(§3) In the same manner as that of Test Example 1, the cells were seeded (8000 to 16000 cells/well, respectively) in each well of 96-well plates (Nunc, catalog No. 167008), and growth ratios of the cells treated with test compounds were calculated. Measurement of absorbance was performed at 3 to 4 hours after the addition of the XTT labeling mixture.

[2] = tested on: human acute lymphoblastic leukemia RS4;11 cells; assay: Cell growth inhibition test against hematopoietic tumor cell lines (XTT), RS4;11; assay type: cell-based; conditions: 72 hours culture with compound, read-out: growth inhibitory activity, GI50 value
Description: (§4) As hematopoietic tumor cell lines, human acute lymphoblastic leukemia RS4;11 cells (ATCC No. CRL-1873), human chronic myeloid leukemia K-562 cells (ATCC No. CCL-243), and human multiple myeloma NCI-H929 cells (ATCC No. CRL-9068) were used. For the culture of the cells, RPMI 1640 Medium (Invitrogen, catalog No. 11875-093) containing 10% fetal bovine serum (Invitrogen, catalog No. 10099-141), 10 mmol/L 4-(2-hydroxyethyl)-1-piperazinethanesulfonic acid (HEPES) buffer (ICN Biomedicals, catalog No. 1688449), 1 mmol/L sodium pyruvate (Invitrogen, catalog No. 11360-070), 4.5 g/L glucose (Sigma-Aldrich, catalog No. G8769), 100 units/mL penicillin (Invitrogen, catalog No. 15140-122) and 100 μg/mL streptomycin (Invitrogen, catalog No. 15140-122) was used. The cells were cultured at 37° C. in a 5% carbon dioxide atmosphere.
as §1

[3] = tested on: human multiple myeloma NCI-H929 cells; assay: Cell growth inhibition test against hematopoietic tumor cell lines (XTT), NCI-H929; assay type: cell-based; conditions: 72 hours culture with compound, read-out: growth inhibitory activity, GI50 value
Description: as §4, §1

[4] = tested on: human acute myeloid leukemia MV-4-11 cells; assay: Cell growth inhibition test on acute myeloid leukemia cells (XTT), MV-4-11; assay type: cell-based; conditions: MV4-11, same manner as Test Example 1, read-out: growth inhibitory activity, GI50 value
Experimental: as §1, §2, §3

[5] = tested on: human chronic myeloid leukemia K-562 cells; assay: Cell growth inhibition test against hematopoietic tumor cell lines (XTT), K-562; assay type: cell-based; conditions: K562, 72 hours culture with compound, read-out: growth inhibitory activity, GI50 value
Description: as §4, §1

[6] = biological target: T1, recombinant human Eg5 motor domain protein (Homo sapiens, UniProt P52732); assay: Eg5 enzyme inhibition test (ATPase activity); assay type: biochemical; conditions: for inhibition of the ATPase activity of Eg5 (in words): 30° C., 30 minutes, absorbance at 360 nm; for Eg5 inhibitory activity compared with the corresponding racemic mixture (in words): versus Compounds 3, 4, 6, 7, 20, 14, 9, 8, the respectively corresponding racemic mixtures
T1 construct: A plasmid expressing the motor domain of human Eg5 was constructed; made in house; host or cells: Escherichia coli BL21 (DE3)
T1 sequence (P52732 18-359 limits assumed): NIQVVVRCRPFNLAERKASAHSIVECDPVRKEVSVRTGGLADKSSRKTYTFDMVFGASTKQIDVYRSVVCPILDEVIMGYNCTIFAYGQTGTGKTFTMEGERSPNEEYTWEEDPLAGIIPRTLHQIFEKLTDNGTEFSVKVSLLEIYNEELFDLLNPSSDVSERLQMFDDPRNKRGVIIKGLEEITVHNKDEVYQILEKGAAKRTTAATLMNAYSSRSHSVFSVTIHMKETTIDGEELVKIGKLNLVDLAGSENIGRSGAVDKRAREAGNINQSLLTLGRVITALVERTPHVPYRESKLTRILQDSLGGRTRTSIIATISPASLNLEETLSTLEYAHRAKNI
Experimental: A recombinant human Eg5 motor domain protein was prepared by referring to the literature [Biochemistry, Vol. 35, p. […] A plasmid expressing the motor domain of human Eg5 was constructed, and transformed into Eseherichia coli BL21 (DE3). The transformant was cultured at 25° C., and when the OD600 reached 0.74, isopropyl-β-D-thiogalactoside was added at a final concentration of 0.5 mmol/L. The transformant was further cultured for 4 hours, and then the culture medium was centrifuged to collect the cells. The cells were suspended in a buffer and ultrasonicated, and then the sonicated solution was centrifuged to recover the supernatant. The supernatant was purified by cation exchange column chromatography to obtain a partially purified sample. Furthermore, the partially purified sample was purified by gel filtration column chromatography to obtain a finally purified sample.
Measurement of the ATPase activity of Eg5 was carried out by referring to the literatures [EMBO Journal, Vol. 13, p. […] Solution A was dispensed into each well of a 96-well plate as 45 μL portions. Solution B was used to serially dilute a test compound. The diluted test compound solutions in a volume of 30 μL were mixed with Solution A added beforehand in each well of the 96-well plate to start the enzymatic reaction. The enzymatic reaction was performed at 30° C. for 30 minutes. […] The relative activity was calculated to calculate IC50 value.

Compound	GI50 [1] [µM]	GI50 [2] [µM]	GI50 [3] [µM]	GI50 [4] [µM]	GI50 [5] [µM]	melting point [°C]	Eg5 inhibitory activity compared with the corresponding racemic mixture (in words) [6]	inhibition of the ATPase activity of Eg5 (in words) [6]
CN(C)CCS(=O)(=O)NCC1(c2ccccc2)SC(NC(=O)C(C)(C)C)=NN1C(=O)C(C)(C)C (single isomer, unassigned; (-)) [Compound m, (−)-N-[5-(2-Dimethylaminoethanesulfonylaminomethyl)-4-(2,2-dimethylpropionyl)-5-phenyl-4,5-dihydro-1,3,4-thiadiazol-2-yl]-2,2-dimethylpropanamide]	< 10	< 10	< 10	< 10	< 10	101 to 104		
CC(=O)N1N=C(NC(=O)C(C)(C)C)SC1(CCNS(C)(=O)=O)c1ccccc1 (single isomer, unassigned; (-)) [Compound f, (−)-N-[4-Acetyl-5-(2-methanesulfonylaminoethyl)-5-phenyl-4,5-dihydro-1,3,4-thiadiazol-2-yl]-2,2-dimethylpropanamide]						187 to 190		
CCC(=O)N1N=C(N2CCCC2=O)SC1(CCNS(C)(=O)=O)c1ccccc1 (single isomer, unassigned; (-)) [Compound e, (−)-N-{2-[5-(2-Oxopyrrolidin-1-yl)-2-phenyl-3-propionyl-2,3-dihydro-1,3,4-thiadiazol-2-yl]ethyl}methanesulfonamide]	< 10	< 10	< 10	< 10	< 10	188 to 191	stronger inhibitory activities	inhibited the ATPase activity of Eg5 in a concentration-dependent manner

Now from value to compound, other results behind:

GI50 [1] [µM]	GI50 [2] [µM]	GI50 [3] [µM]	GI50 [4] [µM]	GI50 [5] [µM]	melting point [°C]	Eg5 inhibitory activity compared with the corresponding racemic mixture (in words) [6]	Compound	inhibition of the ATPase activity of Eg5 (in words) [6]
< 10	< 10	< 10	< 10	< 10	92 to 95		CN(C)CCCS(=O)(=O)NCC1(c2ccccc2)SC(NC(=O)C(C)(C)C)=NN1C(=O)C(C)(C)C (single isomer, unassigned; (-)) [Compound n, (−)-N-[5-(3-Dimethylaminopropanesulfonylaminomethyl)-4-(2,2-dimethylpropionyl)-5-phenyl-4,5-dihydro-1,3,4-thiadiazol-2-yl]-2,2-dimethylpropanamide]	
< 10	< 10	< 10	< 10	< 10	169 to 171	stronger inhibitory activities	CC(=O)N1N=C(N2CCCCC2=O)SC1(CCNS(C)(=O)=O)c1ccccc1 (single isomer, unassigned; (-)) [Compound h, (−)-N-{2-[3-Acetyl-5-(2-oxopiperidino)-2-phenyl-2,3-dihydro-1,3,4-thiadiazol-2-yl]ethyl}methanesulfonamide]	inhibited the ATPase activity of Eg5 in a concentration-dependent manner
